According to patent US10702531B2, “Pyrazolopyrimidine compound as PI3K inhibitor and use thereof” (Shenzhen Bo Li Jian Medicine Co., Ltd., priority 2016, dated 2020):

Key:
lymphoma cell SU-DHL-6 = experiment: CellTiter-Glo inhibition of proliferation of lymphoma cell SU-DHL-6; format: cell-based; conditions: Homo sapiens, 72 hours
Procedure: CellTiter-Glo testing method was used to test the inhibition of the proliferation of lymphoma cell SU-DHL-6 (ATCC, Catalog number: CRL-2959) by the compounds. The cell culture solution used in the test was RPMI1640 (Invitrogen, Catalog number: 11875-093). 10% fetal calf serum (Invitrogen, Catalog number: 10099-141) was used in the test.
100 μL of culture solution containing 15000 cells was distributed to wells of a 96-well plate (Corning #3903). The plate was placed in a carbon dioxide incubator overnight. 0.5 μL of the compound (which was prepared using DMSO to have eight continuous concentration gradients) to be tested was added to each of the wells the next day. Each concentration was set with two replicates, and a well without cell (blank control) and a DMSO-well (solvent control). After dosing, the cells were cultured at 37° C. in 5% CO2 atmosphere for 72 hours. At last, 100 μL of CellTiter-Glo agent (Promega, Catalog number: G7571) was added to each of the wells. Luminescence signal was detected using Flex Station3 (Molecular Devices), and the IC50 value of each of the compounds inhibiting cell proliferation was calculated using XLfit software (Table 1).

[1] = target: T1, PI3Kδ kinase (p110δ/p85α) (Homo sapiens, UniProt O00329); experiment: Activity of PI3Kδ kinase by ADP-Glo method; format: biochemical; conditions: 17 nM kinase, 50 μM PIP2, 25 μM ATP
T1 construct: purchased Millipore 14-604-K
T1 sequence (O00329 whole entry): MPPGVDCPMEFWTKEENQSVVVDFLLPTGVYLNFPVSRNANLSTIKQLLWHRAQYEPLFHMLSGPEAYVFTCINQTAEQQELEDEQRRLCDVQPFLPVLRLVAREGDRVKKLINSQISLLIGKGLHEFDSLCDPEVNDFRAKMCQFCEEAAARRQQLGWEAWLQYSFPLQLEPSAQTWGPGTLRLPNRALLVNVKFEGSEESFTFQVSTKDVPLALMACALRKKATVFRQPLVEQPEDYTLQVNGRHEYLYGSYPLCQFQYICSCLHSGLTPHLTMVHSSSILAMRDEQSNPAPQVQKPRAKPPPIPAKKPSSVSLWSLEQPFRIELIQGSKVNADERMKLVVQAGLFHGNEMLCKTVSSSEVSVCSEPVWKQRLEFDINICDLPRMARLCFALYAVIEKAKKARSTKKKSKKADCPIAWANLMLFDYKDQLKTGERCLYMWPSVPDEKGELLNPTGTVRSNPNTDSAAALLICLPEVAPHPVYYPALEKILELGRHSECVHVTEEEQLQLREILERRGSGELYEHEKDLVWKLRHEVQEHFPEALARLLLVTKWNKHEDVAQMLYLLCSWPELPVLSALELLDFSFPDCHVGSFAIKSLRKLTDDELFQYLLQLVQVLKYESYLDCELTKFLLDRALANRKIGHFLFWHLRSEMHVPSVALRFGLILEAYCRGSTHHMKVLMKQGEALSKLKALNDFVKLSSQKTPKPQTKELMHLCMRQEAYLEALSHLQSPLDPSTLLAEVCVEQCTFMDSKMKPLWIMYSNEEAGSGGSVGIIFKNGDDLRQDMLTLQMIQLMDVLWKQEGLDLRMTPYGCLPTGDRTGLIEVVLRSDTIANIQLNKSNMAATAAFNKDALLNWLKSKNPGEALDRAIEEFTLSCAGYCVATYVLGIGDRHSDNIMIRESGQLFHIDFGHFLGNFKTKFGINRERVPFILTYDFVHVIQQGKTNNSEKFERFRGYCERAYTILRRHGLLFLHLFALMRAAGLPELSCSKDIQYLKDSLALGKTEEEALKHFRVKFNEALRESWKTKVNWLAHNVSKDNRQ
T1 sequence (P27986 whole entry partner): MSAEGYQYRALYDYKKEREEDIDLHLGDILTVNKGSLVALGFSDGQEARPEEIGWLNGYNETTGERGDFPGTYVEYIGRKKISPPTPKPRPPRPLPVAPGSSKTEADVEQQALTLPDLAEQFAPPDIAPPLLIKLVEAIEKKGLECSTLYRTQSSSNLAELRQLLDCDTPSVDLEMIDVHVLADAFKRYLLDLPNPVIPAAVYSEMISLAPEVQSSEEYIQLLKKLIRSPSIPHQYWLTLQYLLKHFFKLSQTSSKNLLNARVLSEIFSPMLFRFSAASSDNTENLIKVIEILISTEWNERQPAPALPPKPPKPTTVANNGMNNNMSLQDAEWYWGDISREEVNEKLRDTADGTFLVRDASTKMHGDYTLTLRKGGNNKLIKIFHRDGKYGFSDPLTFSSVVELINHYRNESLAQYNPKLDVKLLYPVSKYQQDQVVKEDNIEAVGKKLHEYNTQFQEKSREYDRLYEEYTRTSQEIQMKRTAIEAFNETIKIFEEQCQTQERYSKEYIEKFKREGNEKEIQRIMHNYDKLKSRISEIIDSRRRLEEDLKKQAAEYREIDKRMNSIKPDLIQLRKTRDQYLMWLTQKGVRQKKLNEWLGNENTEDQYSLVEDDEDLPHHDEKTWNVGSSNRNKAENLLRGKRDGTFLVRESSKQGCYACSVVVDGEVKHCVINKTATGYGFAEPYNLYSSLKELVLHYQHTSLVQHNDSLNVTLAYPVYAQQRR
Procedure: Activity of PI3Kδ kinase was tested by ADP-Glo method. ADP-Glo was obtained from Promega (#V9101). p110δ/p85α was obtained from Millipore (#14-604-K). The IC50 of each of the compounds was evaluated by testing the compound at 10 concentrations. The starting concentration was 1 μM, and then a 3-fold serial dilution was performed. Buffer solutions for the testing were 50 mM HEPES pH 7.5, 3 mM MgCl2, 1 mM EGTA, 100 mM NaCl, 0.03% CHAPS, and 2 mM DTT. The final concentration of the PI3Kδ kinase was 17 nM; the final concentration of PIP2 was 50 μM; and the final concentration of ATP was 25 μM.
1. Preparation of 10 μL of kinase reaction solution: 2.5 μL of test compound solution, 2.5 μL of kinase solution, and 5 μL of substrate solution were added to each well of a 384-well plate (Corning #4512).
2. The 384-well plate was covered and incubated at room temperature for 60 minutes.
3. 5 μL of reaction solution was transferred from each well to the wells of a new 384-well plate.
4. 5 μL of ADP-Glo reagent was added to the wells of the 384-well plate to terminate the reaction.
5. The 384-well plate was shaken gently on a shaking machine. 6. 10 μL of kinase detection reagent was added to each of the wells, followed by shaking for 1 minute and allowing to standing at room temperature for 30 minutes.
8. The luminescence values of the sample were read using Synegy. 9. Data were processed using Excel and was curve-fitted using XLFit software to obtain the IC50 value of each of the compounds (Table 1).

Structure (SMILES)	IC50 (lymphoma cell SU-DHL-6) [nM]	IC50 [1] [nM]
C[C@H](Nc1ncnc(N)c1C#N)c1cn2ncc(Cl)c2nc1-c1ccccc1 [Example 1, (S)-4-amino-6-(1-(3-chloro-5-phenylpyrazolo[1,5-a]pyrimidin-6-yl)ethylamino) pyrimidin-5-carbonitrile]	20 to 100	< 20
C[C@H](Nc1ncnc(N)c1C#N)c1cn2ncc(Cl)c2nc1-c1cccc(F)c1 [Example 4, (S)-4-amino-6-(1-(3-chloro-5-(3-fluorophenyl)pyrazolo[1,5-a]pyrimidin-6-yl)ethylamino)pyrimidin-5-carbonitrile]	20 to 100	< 20
Cc1nc(N)nc(N[C@@H](C)c2cn3ncc(Cl)c3nc2-c2ccccc2)c1C#N [Example 5, (S)-2-amino-4-((1-(3-chloro-5-phenylpyrazolo[1,5-a]pyrimidin-6-yl)ethyl)amino)-6-methylpyrimidin-5-carbonitrile]	20 to 100	< 20

Other lines, results leading:

IC50 (lymphoma cell SU-DHL-6) [nM]	IC50 [1] [nM]	Structure (SMILES)
< 20	< 20	C[C@H](Nc1nc(N)nc(N)c1C#N)c1cn2ncc(Cl)c2nc1-c1ccccc1 [Example 2, (S)-2,4-diamino-6-(1-(3-chloro-5-phenylpyrazolo[1,5-a]pyrimidin-6-yl)ethylamino)pyrimidin-5-carbonitrile]
< 20	< 20	C[C@H](Nc1nc(N)nc(N)c1C#N)c1cn2ncc(Cl)c2nc1-c1cccc(F)c1 [Example 3, (S)-2,4-diamino-6-(1-(3-chloro-5-(3-fluorophenyl)pyrazolo[1,5-a]pyrimidin-6-yl)ethylamino)pyrimidin-5-carbonitrile]
